21 compounds from patent US20090215778A1, “Alpha-substituted Arylmethyl Piperazine Pyrazolo [1,5-alpha]Pyrimidine Amide Derivatives” (priority 2007, published 2009) can be followed below.

Assay [1] has as its target T1, HIV Env six-helix bundle (6HB) structure (Human immunodeficiency virus type 1 group M subtype B, UniProt P04579).
T1 construct: H9 cells chronically infected with HIV-1 (H9/HIV-1RF); endogenous in cells; host or cells: H9 cells chronically infected with HIV-1 strain RF (Env is made from the virus in the infected cells, not by transfection)
Description: Six-helix bundle (6HB) assay. The class given is cell-based, HIV-1 (strain RF). The method in brief:
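Chronically HIV-1 RF-infected H9 cells (12-40 days post-infection), 2.5×10^5 per well, were preincubated with compound for 30 min at 37 °C. sCD4 at 1 μg/mL was added for 1 h to trigger Env changes. 6HB-specific rabbit serum (1 h, 37 °C) was then added, followed by PE anti-rabbit (45 min, 4 °C), with flow cytometric fluorescence read-out.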

A further assay deals with HIV-1, NL4-3 strain. Description: Virus infection assay (virus entry and single-cycle infection). In kind it is cell-based. The settings on record: Human immunodeficiency virus 1, NL43, TZM-b1, read-out: Nl4. The essentials:
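TZM-b1 cells (CD4, CXCR4, CCR5; LTR-driven lacZ/luciferase reporters) were infected with HIV-1 NL4-3 (MOI 0.01) with 80 μg/mL DEAE-dextran in the presence of test compound, 4 h at 37 °C before adding complete medium. Infection was quantified one day post-infection as chemiluminescent β-galactosidase signal.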

T1 sequence (P04579 32-519): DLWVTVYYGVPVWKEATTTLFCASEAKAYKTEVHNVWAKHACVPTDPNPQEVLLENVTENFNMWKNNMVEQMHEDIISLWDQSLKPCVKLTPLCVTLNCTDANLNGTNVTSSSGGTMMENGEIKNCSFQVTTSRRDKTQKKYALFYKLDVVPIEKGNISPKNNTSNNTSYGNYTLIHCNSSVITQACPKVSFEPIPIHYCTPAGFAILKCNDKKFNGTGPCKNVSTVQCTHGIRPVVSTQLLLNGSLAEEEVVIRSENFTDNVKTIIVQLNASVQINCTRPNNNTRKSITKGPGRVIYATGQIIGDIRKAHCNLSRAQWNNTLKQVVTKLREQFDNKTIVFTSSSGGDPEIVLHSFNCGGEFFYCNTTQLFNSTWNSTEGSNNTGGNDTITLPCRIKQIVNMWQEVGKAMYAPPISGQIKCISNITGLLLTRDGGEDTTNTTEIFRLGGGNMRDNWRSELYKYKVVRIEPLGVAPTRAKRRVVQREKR
T1 sequence (P04579 520-865): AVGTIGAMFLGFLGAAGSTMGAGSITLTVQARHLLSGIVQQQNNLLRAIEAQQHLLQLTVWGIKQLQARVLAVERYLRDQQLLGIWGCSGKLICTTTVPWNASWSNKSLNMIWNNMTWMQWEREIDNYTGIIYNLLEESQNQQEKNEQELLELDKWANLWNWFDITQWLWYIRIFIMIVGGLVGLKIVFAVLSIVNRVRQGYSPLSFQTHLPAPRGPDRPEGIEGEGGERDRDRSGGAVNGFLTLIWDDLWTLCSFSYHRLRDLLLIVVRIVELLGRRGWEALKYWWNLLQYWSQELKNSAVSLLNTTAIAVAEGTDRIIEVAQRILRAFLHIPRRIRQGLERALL

Regarding `COc1ccc(-c2nc3c(C(=O)N4CCN([C@@H](CO)c5cc(C)cs5)C[C@H]4C)cnn3c(C(F)(F)F)c2C)cc1` [methanone, [(2R)-4-[(1S)-2-hydroxy-1-(4-methyl-2-thienyl)ethyl]-2-methyl-1-piperazinyl][5-(4-methoxyphenyl)-6-methyl-7-(trifluoromethyl)pyrazolo[1,5-α]pyrimidin-3-yl]-], the IC50 in assay [1] is less than 1000 nM; with HIV-1, NL4-3 strain, less than 1000 nM.

Regarding `CCOc1ccccc1C(CO)N1CCN(C(=O)c2cnn3c(C(F)(F)F)c(C)c(-c4ccc(OC)cc4)nc23)[C@H](C)C1` (stereo partly drawn) [methanone, [(2R)-4-[1-(2-ethoxyphenyl)-2-hydroxyethyl]-2-methyl-1-piperazinyl][5-(4-methoxyphenyl)-6-methyl-7-(trifluoromethyl)pyrazolo[1,5-α]pyrimidin-3-yl]-], the IC50 is less than 1000 nM in assay [1] and less than 1000 nM in the assay with HIV-1, NL4-3 strain.

For the compound `COc1ccc(-c2nc3c(C(=O)N4CCN([C@@H](C)c5ccc(F)cc5)C[C@H]4C)cnn3c(C(F)(F)F)c2C)cc1` [methanone, [(2R)-4-[(1S)-1-(4-fluorophenyl)ethyl]-2-methyl-1-piperazinyl][5-(4-methoxyphenyl)-6-methyl-7-(trifluoromethyl)pyrazolo[1,5-α]pyrimidin-3-yl]-], the IC50 is less than 1000 nM in assay [1] and less than 1000 nM with HIV-1, NL4-3 strain.

Consider `COc1ccc(-c2nc3c(C(=O)N4CCN(C(CO)c5cc(F)ccc5OC)C[C@H]4C)cnn3c(C(F)(F)F)c2C)cc1` (stereo partly drawn) [methanone, [(2R)-4-[1-(5-fluoro-2-methoxyphenyl)-2-hydroxyethyl]-2-methyl-1-piperazinyl][5-(4-methoxyphenyl)-6-methyl-7-(trifluoromethyl)pyrazolo[1,5-α]pyrimidin-3-yl]-], for which the IC50 in assay [1] is less than 1000 nM; with HIV-1, NL4-3 strain, less than 1000 nM.

Regarding `COc1ccc(-c2nc3c(C(=O)N4CCN(C(C#N)c5ccccc5)C[C@H]4C)cnn3c(C(F)(F)F)c2C)cc1` (stereo partly drawn) [1-piperazineacetonitrile, 4-[[5-(4-methoxyphenyl)-6-methyl-7-(trifluoromethyl)pyrazolo[1,5-α]pyrimidin-3-yl]carbonyl]-3-methyl-α-phenyl-, (3R)-], the IC50 in assay [1] was less than 1000 nM; in the assay with HIV-1, NL4-3 strain, less than 1000 nM.

As to `COc1ccc2c(c1)CCc1c-2nc2c(C(=O)N3CCN([C@@H](CO)c4ccccc4)C[C@H]3C)cnn2c1C(F)(F)F` [methanone, [5,6-dihydro-3-methoxy-7-(trifluoromethyl)benzo[h]pyrazolo[5,1-b]quinazolin-11-yl][(2R)-4-[(1R)-2-hydroxy-1-phenylethyl]-2-methyl-1-piperazinyl]-], the IC50 in assay [1] was less than 1000 nM; in the assay on HIV-1, NL4-3 strain it was less than 1000 nM.

As to `COc1ccc(-c2nc3c(C(=O)N4CCN(C(CO)c5cccc(N6CCNCC6)c5)C[C@H]4C)cnn3c(C(F)(F)F)c2C)cc1` (stereo partly drawn) [methanone, [(2R)-4-[2-hydroxy-1-[3-(1-piperazinyl)phenyl]ethyl]-2-methyl-1-piperazinyl][5-(4-methoxyphenyl)-6-methyl-7-(trifluoromethyl)pyrazolo[1,5-α]pyrimidin-3-yl]-], the IC50 in assay [1] is greater than 10100 nM; in the assay with HIV-1, NL4-3 strain, greater than 10100 nM.

In the case of `COc1ccc(-c2nc3c(C(=O)N4CCN(C(CO)c5cc(OC)ccc5OC)C[C@H]4C)cnn3c(C(F)(F)F)c2C)cc1` (stereo partly drawn) [methanone, [(2R)-4-[1-(2,5-dimethoxyphenyl)-2-hydroxyethyl]-2-methyl-1-piperazinyl][5-(4-methoxyphenyl)-6-methyl-7-(trifluoromethyl)pyrazolo[1,5-α]pyrimidin-3-yl]-], the IC50 was 1100 to 10000 nM in assay [1] and less than 1000 nM in the assay with HIV-1, NL4-3 strain.

Take `COc1ccc(-c2nc3c(C(=O)N4CCN([C@@H](CO)c5ccco5)C[C@H]4C)cnn3c(C(F)(F)F)c2C)cc1` [methanone, [(2R)-4-[(1S)-1-(2-furanyl)-2-hydroxyethyl]-2-methyl-1-piperazinyl][5-(4-methoxyphenyl)-6-methyl-7-(trifluoromethyl)pyrazolo[1,5-α]pyrimidin-3-yl]-]: the IC50 in assay [1] is less than 1000 nM; with HIV-1, NL4-3 strain it was less than 1000 nM.

In the case of `COc1ccc(-c2nc3c(C(=O)N4CCN(C(CO)c5ccccc5Br)C[C@H]4C)cnn3c(C(F)(F)F)c2C)cc1` (stereo partly drawn) [methanone, [(2R)-4-[1-(2-bromophenyl)-2-hydroxyethyl]-2-methyl-1-piperazinyl][5-(4-methoxyphenyl)-6-methyl-7-(trifluoromethyl)pyrazolo[1,5-α]pyrimidin-3-yl]-], the IC50 in assay [1] is less than 1000 nM; in the assay with HIV-1, NL4-3 strain it was less than 1000 nM.

Regarding `COc1ccc(-c2nc3c(C(=O)N4CCN(C(CO)c5cc(F)cc(F)c5F)C[C@H]4C)cnn3c(C(F)(F)F)c2C)cc1` (stereo partly drawn) [methanone, [(2R)-4-[2-hydroxy-1-(2,3,5-trifluorophenyl)ethyl]-2-methyl-1-piperazinyl][5-(4-methoxyphenyl)-6-methyl-7-(trifluoromethyl)pyrazolo[1,5-α]pyrimidin-3-yl]-], the IC50 in assay [1] was less than 1000 nM; in the assay on HIV-1, NL4-3 strain, less than 1000 nM.

Take `COC[C@@H](c1ccccc1)N1CCN(C(=O)c2cnn3c(C(F)(F)F)c(C)c(-c4ccc(OC)cc4)nc23)[C@H](C)C1` [methanone, [(2R)-4-[(1R)-2-methoxy-1-phenylethyl]-2-methyl-1-piperazinyl][5-(4-methoxyphenyl)-6-methyl-7-(trifluoromethyl)pyrazolo[1,5-α]pyrimidin-3-yl]-]: the IC50 in assay [1] was less than 1000 nM; in the assay on HIV-1, NL4-3 strain, less than 1000 nM.

Take `COc1ccc(-c2nc3c(C(=O)N4CCN([C@@H](CO)c5ccccc5)C[C@H]4C)cnn3c(C(F)(F)F)c2C)cn1` [methanone, [(2R)-4-[(1R)-2-hydroxy-1-phenylethyl]-2-methyl-1-piperazinyl][5-(6-methoxy-3-pyridinyl)-6-methyl-7-(trifluoromethyl)pyrazolo[1,5-α]pyrimidin-3-yl]-]: the IC50 in assay [1] is less than 1000 nM; in the assay with HIV-1, NL4-3 strain, less than 1000 nM.

As to `COc1ccc(-c2nc3c(C(=O)N4CCN([C@@H](C)c5ccc(C#N)s5)C[C@H]4C)cnn3c(C(F)(F)F)c2C)cc1` [2-thiophenecarbonitrile, 5-[(1S)-1-[(3R)-4-[[5-(4-methoxyphenyl)-6-methyl-7-(trifluoromethyl)pyrazolo[1,5-α]pyrimidin-3-yl]carbonyl]-3-methyl-1-piperazinyl]ethyl]-], the IC50 was less than 1000 nM in assay [1] and 1100 to 10000 nM in the assay on HIV-1, NL4-3 strain.

As for `COc1ccc(-c2nc3c(C(=O)N4CCN([C@@H](C)c5ccc(C#N)cc5)C[C@H]4C)cnn3c(C(F)(F)F)c2C)cc1` [benzonitrile, 4-[(1S)-1-[(3R)-4-[[5-(4-methoxyphenyl)-6-methyl-7-(trifluoromethyl)pyrazolo[1,5-α]pyrimidin-3-yl]carbonyl]-3-methyl-1-piperazinyl]ethyl]-], the IC50 in assay [1] is 1100 to 10000 nM; in the assay on HIV-1, NL4-3 strain, less than 1000 nM.

Turning to `COc1ccc(-c2nc3c(C(=O)N4CCN(C(CO)c5cccnc5)C[C@H]4C)cnn3c(C(F)(F)F)c2C)cc1` (stereo partly drawn) [methanone, [(2R)-4-[2-hydroxy-1-(3-pyridinyl)ethyl]-2-methyl-1-piperazinyl][5-(4-methoxyphenyl)-6-methyl-7-(trifluoromethyl)pyrazolo[1,5-α]pyrimidin-3-yl]-], the IC50 in assay [1] was less than 1000 nM; with HIV-1, NL4-3 strain it was greater than 10100 nM.

Turning to `COc1ccc(-c2nc3c(C(=O)N4CCN(C(CO)c5cccc(NC(N)=O)c5)C[C@H]4C)cnn3c(C(F)(F)F)c2C)cc1` (stereo partly drawn) [urea, N-[3-[2-hydroxy-1-[(3R)-4-[[5-(4-methoxyphenyl)-6-methyl-7-(trifluoromethyl)pyrazolo[1,5-α]pyrimidin-3-yl]carbonyl]-3-methyl-1-piperazinyl]ethyl]phenyl]-], the IC50 in assay [1] is less than 1000 nM; in the assay on HIV-1, NL4-3 strain it was 1100 to 10000 nM.

For `COc1ccc(-c2nc3c(C(=O)N4CCN(C(CO)c5ccc(Br)nc5)C[C@H]4C)cnn3c(C(F)(F)F)c2C)cc1` (stereo partly drawn) [methanone, [(2R)-4-[1-(6-bromo-3-pyridinyl)-2-hydroxyethyl]-2-methyl-1-piperazinyl][5-(4-methoxyphenyl)-6-methyl-7-(trifluoromethyl)pyrazolo[1,5-α]pyrimidin-3-yl]-], the IC50 is less than 1000 nM in assay [1] and less than 1000 nM in the assay with HIV-1, NL4-3 strain.

On to `COc1ccc(-c2nc3c(C(=O)N4CCN(C(CO)c5ccc(OC)cc5)C[C@H]4C)cnn3c(C(F)(F)F)c2C)cc1` (stereo partly drawn) [methanone, [(2R)-4-[2-hydroxy-1-(4-methoxyphenyl)ethyl]-2-methyl-1-piperazinyl][5-(4-methoxyphenyl)-6-methyl-7-(trifluoromethyl)pyrazolo[1,5-α]pyrimidin-3-yl]-], for which the IC50 was less than 1000 nM in assay [1] and less than 1000 nM in the assay on HIV-1, NL4-3 strain.

As to `COc1ccc(-c2nc3c(C(=O)N4CCN([C@H](CO)c5ccc(Cl)s5)C[C@H]4C)cnn3c(C(F)(F)F)c2C)cc1` [methanone, [(2R)-4-[(1R)-1-(5-chloro-2-thienyl)-2-hydroxyethyl]-2-methyl-1-piperazinyl][5-(4-methoxyphenyl)-6-methyl-7-(trifluoromethyl)pyrazolo[1,5-α]pyrimidin-3-yl]-], the IC50 is less than 1000 nM in assay [1] and less than 1000 nM with HIV-1, NL4-3 strain.

For `COc1ccc(-c2nc3c(C(=O)N4CCN(C(CO)c5cccc(CNC(C)=O)c5)C[C@H]4C)cnn3c(C(F)(F)F)c2C)cc1` (stereo partly drawn) [acetamide, N-[[3-[2-hydroxy-1-[(3R)-4-[[5-(4-methoxyphenyl)-6-methyl-7-(trifluoromethyl)pyrazolo[1,5-α]pyrimidin-3-yl]carbonyl]-3-methyl-1-piperazinyl]ethyl]phenyl]methyl]-], the IC50 was greater than 10100 nM in assay [1] and greater than 10100 nM in the assay with HIV-1, NL4-3 strain.
